Data as given in patent EP0073865B1, “Derivatives of iodothyronine compounds and their use in an assay for the free iodothyronine compounds” (AMERSHAM INTERNATIONAL plc, priority 1981, dated 1983).

What was measured:
[1] = Stability of the tracer compound in water / assay buffer; type: physicochemical; details: on dilution into the assay buffer / contact with water
[2] = target: T1, TBG (Homo sapiens, UniProt P05543); assay: Displacement of 125I-T4 tracer from TBG:anti-TBG binding reagent (binding strength relative to T4); details: for binding to TBG (in words): I-125 labelled tracer
T1 construct: from tissue; host or cells: human serum (resin stripped)
T1 sequence (P05543 21-415): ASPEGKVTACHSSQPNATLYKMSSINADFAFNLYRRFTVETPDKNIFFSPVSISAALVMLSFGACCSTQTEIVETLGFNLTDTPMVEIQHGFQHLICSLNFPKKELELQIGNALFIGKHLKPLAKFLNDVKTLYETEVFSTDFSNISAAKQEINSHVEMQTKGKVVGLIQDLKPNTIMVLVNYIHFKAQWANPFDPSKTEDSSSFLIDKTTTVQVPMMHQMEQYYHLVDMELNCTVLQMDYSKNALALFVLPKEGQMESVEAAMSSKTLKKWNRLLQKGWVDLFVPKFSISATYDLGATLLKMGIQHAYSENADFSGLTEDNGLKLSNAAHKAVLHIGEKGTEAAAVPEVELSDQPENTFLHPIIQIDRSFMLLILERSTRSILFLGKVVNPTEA
Procedure: (§1) Method for estimation of T4.EDTA binding strength to TBG and prealbumin relative to that of T4
(§2) Pre-precipitated antiserum (binding reagent) to either TBG or prealbumin is incubated with a serum source of TBG or prealbumin, so that the T4 binding protein is isolated on the binding reagent. Tracer ^125I-T4 is added to the resulting complex and is thus purified. The displacement of the tracer ^125I―T4, by varying concentrations of T4 and T4.EDTA, from the TBG or prealbumin, can then be studied. The results can be used to estimate the differences in binding affinity between T4 and T4.EDTA for the two T4 binding proteins.
• 2.1 Preparation of ^125I-T4:TBG:anti-TBG binding reagent • 2.1.1. Binding reagent preparation • 15% Donkey anti-sheep) in phosphate • 2% TBG Antiserum) buffer + 0.05% BSA
Equal quantities of the above solutions are mixed and rotated overnight at 4° so that the final concentrations in the binding reagent are 7.5% donkey anti-sheep, and 1% TBG antiserum. Centrifugation at 900 rpm, decantation and resuspension in fresh buffer are carried out twice to wash the reagent.
1 ml of resin stripped human serum and 20 ml of the above binding reagents are mixed for 1 hour at room temperature. Centrifugation, decantation and resuspension in fresh buffer (phosphate + 0.05% BSA) are carried out twice.
Typically 10 ml ofTBG:anti-TBG binding reagents, 28 ml of phosphate buffer + 0.05% BSA, and 2 ml of ^125I―T4 tracer solution (0.1 µCi high specific activity T4 per ml in phosphate buffer + 0.05% BSA) are mixed for 1 hour at room temperature. […]
(§3) Thus the percentage bound of the tracer at different T4 and T4.EDTA concentrations, can be determined in the two systems.
(§4) Tracer percentage bound is plotted against T4 and T4.EDTA concentrations, and from these curves an estimate of the non-specific binding can be made. The data can then be re-calculated, using this blank correction, plotted, and the T4 and T4.EDTA concentrations corresponding to a range of tracer percentage bound values can be read off the curve. […]

[3] = test system: Antisera (having low T4 cross reactivity); assay: Binding to antisera having low T4 cross reactivity, compared with T3
[4] = test system: T4 antiserum; assay: Affinity constant with respect to T4 antiserum, relative to T4; type: binding
[5] = target: T2, TBPA (Homo sapiens, UniProt P02766); assay: Displacement of 125I-T4 tracer from TBPA:anti-TBPA binding reagent (binding strength relative to T4); details: binding to TBPA (prealbumin), displacement of 125I-T4, 37°C
T2 construct: from tissue; host or cells: normal serum
Procedure: as §1, §2
This is prepared as for the anti-TBG binding reagent except that equal volumes of 30% donkey anti-rabbit second antibody and 4% TBPA antiserum solutions were mixed to give final concentrations of 15% donkey anti-rabbit, and 2% anti-TBPA. […]
as §3, §4

| SMILES | stability in water [1] | binding to TBG (in words) [2] | binding to Antisera compared with T3 [3] | affinity constant with respect to T4 antiserum as % of that of T4 [4] | affinity constant as % of the affinity constant of T4 ([2]; binding to TBG, displacement of 125I-T4, 37°C) | affinity constant as % of the affinity constant of T4 [5] |
| --- | --- | --- | --- | --- | --- | --- |
| COC(=O)[C@H](Cc1cc(I)c(Oc2cc(I)c(O)c(I)c2)c(I)c1)NC(C)=O [N-Acetyl-thyroxine-methyl ester, N-acetyl-thyroxine-methyl ester, reference compound] | only gives useful assay results within hours of dilution into the assay buffer | binds appreciably to TBG | – | – | – | – |
| O=C(O)CN(CCN(CC(=O)O)CC(=O)NC(Cc1cc(I)c(Oc2ccc(O)c(I)c2)c(I)c1)C(=O)O)CC(=O)O (centres unmarked) [T3.EDTA, 2-carboxy-6,9-dicarboxymethyl-1 3',5' di-iodo-4' (3"-iodo-4"-hydroxy)phenoxy phenyl 4-oxo-3,6,9-triazaundecan-11-oic acid.] | – | – | equal, or better, binding than T3 itself | – | – | – |
| O=C(O)CN(CCN(CC(=O)O)CC(=O)NC(Cc1cc(I)c(Oc2cc(I)c(O)c(I)c2)c(I)c1)C(=O)O)CC(=O)O (centres unmarked) [T4.EDTA, 1-{3',5'-di-iodo-4' (3",5"-di-iodo-4"-Hydroxyphenoxy)phenyl} 2-carboxy-6,9-dicarboxymethyl-4-oxo-3,6,9,-triazaundecan-11-oic acid] | stable in water | no significant tendency to bind to TBG | – | 90.4% | 3.5% | 2.7% |
